According to patent publication US9296741B2, “Bromodomain inhibitors” (priority 2012, dated 2016):

Assays:
[1] = Mouse liver microsome stability assay; assay type: in vitro ADME; conditions: male, CD1, mouse, microsomes, pH 7.4
[2] = system: LPS induced IL-6 production; assay: LPS (lipopolysaccharide) induced IL-6 production mouse assay; assay type: in vivo; conditions: 1 h before LPS, serum IL-6 2 h after LPS; for inhibition in vivo at 3 mg/kg: Mus musculus, read-out: Inhibition of LPS induced IL-6 production in Mice, % inhibition at 3 mg/kg, 3 mg/kg oral
[3] = Human liver microsome stability assay; assay type: in vitro ADME; conditions: both sexes, human, microsomes, pH 7.4
[4] = Rat liver microsome stability assay; assay type: in vitro ADME; conditions: rat liver microsomes (male Sprague-Dawley), 0.5 μM test compound, 0.25 mg/mL microsomal protein, pH 7.4, 37° C.; read-out: Stability in rat liver microsomes (t1/2 in minutes)
[5] = system: breast cancer cell line MX-1; assay: MX-1 cell line proliferation assay; assay type: cell-based, human; conditions: Homo sapiens, MX1, 72 h; MX-1 cells, 3-day proliferation, Cell Titer Glo; read-out: Cellular proliferation: EC50
[6] = target: human BRD4 second bromodomain (BDII_E352-M457) (Homo sapiens (Human), UniProt O60885); assay: TR-FRET bromodomain binding assay, BRD4 second bromodomain
[7] = target: human BRD4 first bromodomain (BDI_K57-E168) (Homo sapiens (Human), UniProt O60885); assay: TR-FRET bromodomain binding assay, BRD4 first bromodomain

| Compound | half-life at 0.5 μM [1] [min] | inhibition in vivo at 3 mg/kg [2] [%] | half-life at 0.5 μM [3] [min] | half-life at 0.5 μM [4] [min] | EC50 [5] [nM] | Ki [6] [nM] | Ki [7] [nM] | Inhibition of LPS induced IL-6 production in Mice, % inhibition at 30 mg/kg ([2]; 30 mg/kg oral) [% at 30 mg/kg] |
| --- | --- | --- | --- | --- | --- | --- | --- | --- |
| CN(C)S(=O)(=O)c1ccc(OCC2CC2)c(-c2cn(C)c(=O)c3[nH]ccc23)c1 [Example 273, 4-(cyclopropylmethoxy)-N,N-dimethyl-3-(6-methyl-7-oxo-6,7-dihydro-1H-pyrrolo[2,3-c]pyridin-4-yl)benzenesulfonamide] | 8 | 47 | 9 | 12 | 9 | 1.3 | 1.2 |  |
| CCS(=O)(=O)c1ccc(Oc2ccc(C#N)cc2)c(-c2cn(C)c(=O)c3[nH]ccc23)c1 [Example 304, 4-[4-(ethylsulfonyl)-2-(6-methyl-7-oxo-6,7-dihydro-1H-pyrrolo[2,3-c]pyridin-4-yl)phenoxy]benzonitrile] | 72 | 67 | > 120 | 65 | 32.3 | 21.8 | 9 |  |
| Cn1cc(-c2cc(S(C)(=O)=O)ccc2Oc2ccccc2)c2cc[nH]c2c1=O [Example 85, 6-methyl-4-[5-(methylsulfonyl)-2-phenoxyphenyl]-1,6-dihydro-7H-pyrrolo[2,3-c]pyridin-7-one] | 34 | 80 | 43 | 6 | 52 | 1.7 | 6.4 |  |
| Cn1nc(-c2cc(NS(C)(=O)=O)ccc2Oc2ccccc2)c2cc[nH]c2c1=O [Example 80, N-[3-(6-methyl-7-oxo-6,7-dihydro-1H-pyrrolo[2,3-d]pyridazin-4-yl)-4-phenoxyphenyl]methanesulfonamide] | 31 |  | 62 | 2 | 62 | 6.1 | 9.1 | 69 |
| Cn1cc(-c2cc(NS(C)(=O)=O)ccc2Oc2ccc(F)c(F)c2)c2cc[nH]c2c1=O [Example 48, N-[4-(3,4-difluorophenoxy)-3-(6-methyl-7-oxo-6,7-dihydro-1H-pyrrolo[2,3-c]pyridin-4-yl)phenyl]methanesulfonamide] | 35 | 62 | 37 | 32 | 23.5 | 3.3 | 2.3 |  |
| CC(O)c1cc2c(-c3cc(S(C)(=O)=O)ccc3Oc3ccc(F)cc3F)cn(C)c(=O)c2[nH]1 (centres unmarked) [Example 278, 4-[2-(2,4-difluorophenoxy)-5-(methylsulfonyl)phenyl]-2-(1-hydroxyethyl)-6-methyl-1,6-dihydro-7H-pyrrolo[2,3-c]pyridin-7-one] | > 120 | 51 | > 120 | > 120 | 135 | 11.2 | 12.1 |  |
| Cn1cc(-c2cc(S(N)(=O)=O)cnc2Oc2ccc(F)cc2F)c2cc[nH]c2c1=O [Example 242, 6-(2,4-difluorophenoxy)-5-(6-methyl-7-oxo-6,7-dihydro-1H-pyrrolo[2,3-c]pyridin-4-yl)pyridine-3-sulfonamide] | > 120 | 46 | > 120 | 86 | 289 | 5.8 | 36.5 |  |
| Cn1cc(-c2cc(C(=O)N3CCOCC3)ccc2Oc2ccc(F)cc2F)c2cc[nH]c2c1=O [Example 56, 4-[2-(2,4-difluorophenoxy)-5-(morpholin-4-ylcarbonyl)phenyl]-6-methyl-1,6-dihydro-7H-pyrrolo[2,3-c]pyridin-7-one] | 36 | 28 | 39 | 30 | 251 | 2.4 | 12.2 |  |
| CCS(=O)(=O)c1ccc(OCC2CC2)c(-c2cn(C)c(=O)c3[nH]ccc23)c1 [Example 198, 4-[2-(cyclopropylmethoxy)-5-(ethylsulfonyl)phenyl]-6-methyl-1,6-dihydro-7H-pyrrolo[2,3-c]pyridin-7-one] | 55 | 66 |  |  | 9.3 | 1.6 | 1.3 |  |
| Cn1cc(-c2cc(S(C)(=O)=O)ccc2NC2CCCCC2)c2cc[nH]c2c1=O [Example 147, 4-[2-(cyclohexylamino)-5-(methylsulfonyl)phenyl]-6-methyl-1,6-dihydro-7H-pyrrolo[2,3-c]pyridin-7-one] | 32 | 61 | 11 | 8 | 14.8 | 1.1 | 2.1 |  |
| CNS(=O)(=O)c1cnc(NCC2CC2)c(-c2cn(C)c(=O)c3[nH]ccc23)c1 [Example 210, 6-[(cyclopropylmethyl)amino]-N-methyl-5-(6-methyl-7-oxo-6,7-dihydro-1H-pyrrolo[2,3-c]pyridin-4-yl)pyridine-3-sulfonamide] | > 120 | 78 | 104 | > 120 | 36.7 |  |  |  |
| Cn1cc(-c2cc(S(C)(=O)=O)ccc2NCC2CC2)c2cc[nH]c2c1=O [Example 329, 4-{2-[(cyclopropylmethyl)amino]-5-(methylsulfonyl)phenyl}-6-methyl-1,6-dihydro-7H-pyrrolo[2,3-c]pyridin-7-one] | > 120 | 63 | > 120 | > 120 | 17.1 |  |  |  |
| CCS(=O)(=O)Nc1ccc(Oc2ccc(F)cc2F)c(-c2nn(C)c(=O)c3[nH]ccc23)c1 [Example 160, N-[4-(2,4-difluorophenoxy)-3-(6-methyl-7-oxo-6,7-dihydro-1H-pyrrolo[2,3-d]pyridazin-4-yl)phenyl]ethanesulfonamide] | 21 | 51 | 67 | 119 | 119 |  |  |  |
| Cn1cc(-c2cc(CS(C)(=O)=O)ccc2NCC2CC2)c2cc[nH]c2c1=O [Example 328, 4-{2-[(cyclopropylmethyl)amino]-5-[(methylsulfonyl)methyl]phenyl}-6-methyl-1,6-dihydro-7H-pyrrolo[2,3-c]pyridin-7-one] | > 120 | 40 | > 120 | 36 | 42.6 |  |  |  |
| CCS(=O)(=O)c1ccc(OCC2CC2)c(-c2nn(C)c(=O)c3[nH]ccc23)c1 [Example 204, 4-[2-(cyclopropylmethoxy)-5-(ethylsulfonyl)phenyl]-6-methyl-1,6-dihydro-7H-pyrrolo[2,3-d]pyridazin-7-one] | 68 | 35 | > 120 | 81 | 82.9 |  |  |  |
| CNS(=O)(=O)c1cnc(Oc2ccc(F)cc2F)c(-c2cn(C)c(=O)c3[nH]ccc23)c1 [Example 246, 6-(2,4-difluorophenoxy)-N-methyl-5-(6-methyl-7-oxo-6,7-dihydro-1H-pyrrolo[2,3-c]pyridin-4-yl)pyridine-3-sulfonamide] | 56 | 71 | 52 | 53 | 97.5 |  |  |  |
